Values after ≈ are worked out from the molar mass of the structure shown. Active and inactive are the calls of the source. No cut-off for these calls is given here.
How the values were obtained:
KB = experiment: Cytotoxicity against human KB cells; type: functional; details: for EC50: read-out: ED50 (the source's name)
L1210 = experiment: Cytotoxicity against mouse L1210 cells; type: functional; details: for EC50: read-out: ED50 (the source's name)
P388 = experiment: In vivo antitumor activity against mouse P388 cells; type: functional, organism-based

Structure (SMILES)	ED50 (KB)	ED50 (L1210)	EC50 (KB) [µg/mL]	EC50 (L1210) [µg/mL]	Activity (P388)
CN(C)CC1NCCc2c1[nH]c1ccccc21 (stereo unspecified)	inactive	inactive	–	–	–
O[C@@]12CCCCCC[C@H]3CCN4CCC[C@@H](CCCCCC[C@H]5CCN(CCC1)[C@@H]2O5)[C@H]4O3 [DEMETHYLXESTOSPONGIN B]	–	–	2.5 (≈ 5.4 µM)	0.8 (≈ 1.73 µM)	inactive
C[C@@H]1CN2CCC[C@H]3CCCCCC[C@H]4CCN5CCC[C@@](O)(CCCCCC[C@@H]1O[C@H]32)[C@H]5O4 [XESTOSPONGIN B]	–	–	2.5 (≈ 5.24 µM)	2 (≈ 4.2 µM)	inactive
O[C@@]12CCCCCC[C@H]3CCN4CCC[C@H](CCCCCC[C@H]5CCN(CCC1)[C@@H]2O5)[C@H]4O3 [XESTOSPONGIN D]	–	–	2 (≈ 4.32 µM)	0.2 (≈ 0.432 µM)	inactive

— ChEMBL document CHEMBL1149753, “Two new alkaloids from Xestospongia sp., a New Caledonian sponge” (1992)
